pIC50: −log10 of the molar value.

One experiment concerns DLD-1. The experiment in a line: Cytotoxicity against human DLD1 cells. It is filed as functional, cell-based.
The test system of another experiment is HCT-15. The experiment in a line: Cytotoxicity against human HCT15 cells. The format is functional, cell-based.
Experiment [1] in a line: Cytotoxicity against human MES-SA/Dx5-Rx1 cells. It is filed as functional, cell-based.
Experiment [2] in a line: Cytotoxicity against human MES-SA cells. The format is functional, cell-based.
In the next experiment the test system is MES-SA. The experiment in a line: Fold resistant ratio of IC50 for MES-SA/Dx5-Rx1 cells to IC50 for human MES-SA cells.

Turning to `C=C1C[C@@H]2CC[C@@]34C[C@H]5O[C@H]6[C@@H](O3)[C@H]3O[C@H](CC[C@@H]3O[C@H]6[C@H]5O4)CC(=O)C[C@@H]3[C@@H](OC)[C@@H](CCN4CCOCC4)O[C@H]3C[C@H]3O[C@@H](CC[C@@H]1O2)C[C@@H](C)C3=C`, the negative logarithm of the IC50 (pIC50) (usually the IC50 on a negative log10 scale, so that one unit is a factor of ten) with DLD-1 was 9.64; in the experiment on HCT-15, 9.80.

On to `C=C1C[C@@H]2CC[C@@]34C[C@H]5O[C@H]6[C@@H](O3)[C@H]3O[C@H](CC[C@@H]3O[C@H]6[C@H]5O4)CC(=O)C[C@@H]3[C@@H](OC)[C@@H](C[C@@H](CN(C)c4ncccn4)OC)O[C@H]3C[C@H]3O[C@@H](CC[C@@H]1O2)C[C@@H](C)C3=C`, for which the negative logarithm of the IC50 (pIC50) in experiment [1] was 8.00; in experiment [2], 8.66; in the experiment on DLD-1, 8.16; with HCT-15, 8.27. Further, the “Ratio IC50” value with MES-SA is 4.66.

On to `C#CCN(CC#C)C[C@H](C[C@H]1O[C@H]2C[C@H]3O[C@@H](CC[C@@H]4O[C@@H](CC[C@@]56C[C@H]7O[C@H]8[C@@H](O5)[C@H]5O[C@H](CC[C@@H]5O[C@H]8[C@H]7O6)CC(=O)C[C@@H]2[C@H]1OC)CC4=C)C[C@@H](C)C3=C)OC`, for which the negative logarithm of the IC50 (pIC50) in experiment [1] is 9.28; in experiment [2], 9.89; in the experiment with DLD-1, 9.55; with HCT-15, 9.77. The “Ratio IC50” value in the experiment on MES-SA turned out to be 3.99.

Regarding `C#CCN(CC#C)CC[C@H]1O[C@H]2C[C@H]3O[C@@H](CC[C@@H]4O[C@@H](CC[C@@]56C[C@H]7O[C@H]8[C@@H](O5)[C@H]5O[C@H](CC[C@@H]5O[C@H]8[C@H]7O6)CC(=O)C[C@@H]2[C@H]1OC)CC4=C)C[C@@H](C)C3=C`, the negative logarithm of the IC50 (pIC50) in experiment [1] is 8.40; in experiment [2] it was 9.16; with DLD-1, 8.85; in the experiment on HCT-15, 9.05. The “Ratio IC50” value with MES-SA came to 5.65.

For `C=C1C[C@@H]2CC[C@@]34C[C@H]5O[C@H]6[C@@H](O3)[C@H]3O[C@H](CC[C@@H]3O[C@H]6[C@H]5O4)CC(=O)C[C@@H]3[C@@H](OC)[C@@H](C[C@@H](CN4CCN(C(F)(F)F)CC4)OC)O[C@H]3C[C@H]3O[C@@H](CC[C@@H]1O2)C[C@@H](C)C3=C`, the pIC50 in experiment [1] was 9.08; in experiment [2] it was 9.85; in the experiment with DLD-1 it was 9.77; in the experiment on HCT-15 it was 9.82. For the same compound, the “Ratio IC50” value with MES-SA stood at 6.03.

For the compound `C=C1C[C@@H]2CC[C@@]34C[C@H]5O[C@H]6[C@@H](O3)[C@H]3O[C@H](CC[C@@H]3O[C@H]6[C@H]5O4)CC(=O)C[C@@H]3[C@@H](OC)[C@@H](CCN4CCC(C(F)(F)F)CC4)O[C@H]3C[C@H]3O[C@@H](CC[C@@H]1O2)C[C@@H](C)C3=C`, the pIC50 in the experiment on DLD-1 was 9.66; with HCT-15, 9.85.

As for `C#CCN(C)C[C@H](C[C@H]1O[C@H]2C[C@H]3O[C@@H](CC[C@@H]4O[C@@H](CC[C@@]56C[C@H]7O[C@H]8[C@@H](O5)[C@H]5O[C@H](CC[C@@H]5O[C@H]8[C@H]7O6)CC(=O)C[C@@H]2[C@H]1OC)CC4=C)C[C@@H](C)C3=C)OC`, the pIC50 in the experiment on DLD-1 is 9.51; with HCT-15, 9.72.

Regarding `C=C(C)CN(CC)C[C@H](C[C@H]1O[C@H]2C[C@H]3O[C@@H](CC[C@@H]4O[C@@H](CC[C@@]56C[C@H]7O[C@H]8[C@@H](O5)[C@H]5O[C@H](CC[C@@H]5O[C@H]8[C@H]7O6)CC(=O)C[C@@H]2[C@H]1OC)CC4=C)C[C@@H](C)C3=C)OC`, the values for the pIC50 in the experiment with DLD-1 and in the experiment on HCT-15 were 9.29 and 9.47, respectively.

Take `C=C1C[C@@H]2CC[C@@]34C[C@H]5O[C@H]6[C@@H](O3)[C@H]3O[C@H](CC[C@@H]3O[C@H]6[C@H]5O4)CC(=O)C[C@@H]3[C@@H](OC)[C@@H](C[C@@H](CN4CCN(C(=O)OCC)CC4)OC)O[C@H]3C[C@H]3O[C@@H](CC[C@@H]1O2)C[C@@H](C)C3=C`: the figures for the negative logarithm of the IC50 (pIC50) in experiment [1] and in experiment [2] were 8.52 and 10.10, respectively. Further, the “Ratio IC50” value in the experiment on MES-SA is on record as 38.1.

`C=C1C[C@@H]2CC[C@@]34C[C@H]5O[C@H]6[C@@H](O3)[C@H]3O[C@H](CC[C@@H]3O[C@H]6[C@H]5O4)CC(=O)C[C@@H]3[C@@H](OC)[C@@H](C[C@@H](CNCC(=O)OCCCC)OC)O[C@H]3C[C@H]3O[C@@H](CC[C@@H]1O2)C[C@@H](C)C3=C`: the pIC50 in experiment [1] was 8.80; in experiment [2] it was 9.55; in the experiment with DLD-1, 9.24; in the experiment on HCT-15, 9.43. In addition, the “Ratio IC50” value in the experiment with MES-SA is 5.83.

With `C=CCN(CC=C)CC[C@H]1O[C@H]2C[C@H]3O[C@@H](CC[C@@H]4O[C@@H](CC[C@@]56C[C@H]7O[C@H]8[C@@H](O5)[C@H]5O[C@H](CC[C@@H]5O[C@H]8[C@H]7O6)CC(=O)C[C@@H]2[C@H]1OC)CC4=C)C[C@@H](C)C3=C`, the pIC50 was 8.94 in experiment [1], 9.77 in experiment [2], 9.51 in the experiment with DLD-1 and 9.68 in the experiment on HCT-15. Also, the “Ratio IC50” value with MES-SA is reported as 6.57.

Take `C=C1C[C@@H]2CC[C@@]34C[C@H]5O[C@H]6[C@@H](O3)[C@H]3O[C@H](CC[C@@H]3O[C@H]6[C@H]5O4)CC(=O)C[C@@H]3[C@@H](OC)[C@@H](C[C@@H](CN4C[C@@H]4C)OC)O[C@H]3C[C@H]3O[C@@H](CC[C@@H]1O2)C[C@@H](C)C3=C` (stereo partly drawn): the pIC50 in experiment [1] was 8.65; in experiment [2] it was 9.89; in the experiment with DLD-1, 9.33; in the experiment on HCT-15, 9.17. Further, the “Ratio IC50” value in the experiment on MES-SA is 18.26.

On to `C=CCN(CC=C)C[C@H](C[C@H]1O[C@H]2C[C@H]3O[C@@H](CC[C@@H]4O[C@@H](CC[C@@]56C[C@H]7O[C@H]8[C@@H](O5)[C@H]5O[C@H](CC[C@@H]5O[C@H]8[C@H]7O6)CC(=O)C[C@@H]2[C@H]1OC)CC4=C)C[C@@H](C)C3=C)OC`, for which the pIC50 was 9.00 in experiment [1], 9.77 in experiment [2], 9.36 in the experiment on DLD-1 and 9.57 in the experiment on HCT-15. In the experiment with MES-SA, the “Ratio IC50” value is listed as 6.26.

As for `C=C1C[C@@H]2CC[C@@]34C[C@H]5O[C@H]6[C@@H](O3)[C@H]3O[C@H](CC[C@@H]3O[C@H]6[C@H]5O4)CC(=O)C[C@@H]3[C@@H](OC)[C@@H](C[C@@H](CN4C[C@H]4C)OC)O[C@H]3C[C@H]3O[C@@H](CC[C@@H]1O2)C[C@@H](C)C3=C` (stereo partly drawn), the pIC50 is 8.55 in experiment [1], 9.80 in experiment [2], 9.28 in the experiment on DLD-1 and 9.11 in the experiment on HCT-15. Further, the “Ratio IC50” value in the experiment with MES-SA is recorded as 18.04.

As to `C=C(C)CN(CC)CC[C@H]1O[C@H]2C[C@H]3O[C@@H](CC[C@@H]4O[C@@H](CC[C@@]56C[C@H]7O[C@H]8[C@@H](O5)[C@H]5O[C@H](CC[C@@H]5O[C@H]8[C@H]7O6)CC(=O)C[C@@H]2[C@H]1OC)CC4=C)C[C@@H](C)C3=C`, the pIC50 with DLD-1 was 9.21; in the experiment on HCT-15 it was 9.34.

As for `C=C1C[C@@H]2CC[C@@]34C[C@H]5O[C@H]6[C@@H](O3)[C@H]3O[C@H](CC[C@@H]3O[C@H]6[C@H]5O4)CC(=O)C[C@@H]3[C@@H](OC)[C@@H](CCN)O[C@H]3C[C@H]3O[C@@H](CC[C@@H]1O2)C[C@@H](C)C3=C`, the negative logarithm of the IC50 (pIC50) was 7.32 in experiment [1], 9.77 in experiment [2], 8.33 with DLD-1 and 8.07 in the experiment with HCT-15. Also, the “Ratio IC50” value with MES-SA came to 288.17.

For the compound `C=CCN(C)C[C@H](C[C@H]1O[C@H]2C[C@H]3O[C@@H](CC[C@@H]4O[C@@H](CC[C@@]56C[C@H]7O[C@H]8[C@@H](O5)[C@H]5O[C@H](CC[C@@H]5O[C@H]8[C@H]7O6)CC(=O)C[C@@H]2[C@H]1OC)CC4=C)C[C@@H](C)C3=C)OC`, the negative logarithm of the IC50 (pIC50) in experiment [1] is 8.71; in experiment [2], 10.15; in the experiment with DLD-1, 9.64; in the experiment on HCT-15 it was 9.66. For the same compound, the “Ratio IC50” value in the experiment with MES-SA amounted to 29.4.

`C=C1C[C@@H]2CC[C@@]34C[C@H]5O[C@H]6[C@@H](O3)[C@H]3O[C@H](CC[C@@H]3O[C@H]6[C@H]5O4)CC(=O)C[C@@H]3[C@@H](OC)[C@@H](C[C@@H](CN4CCN(S(=O)(=O)c5ccc(C)cc5)CC4)OC)O[C@H]3C[C@H]3O[C@@H](CC[C@@H]1O2)C[C@@H](C)C3=C`: the negative logarithm of the IC50 (pIC50) in experiment [1] is 7.41; in experiment [2], 8.50; in the experiment with DLD-1, 9.00; with HCT-15, 9.21. Also, in the experiment on MES-SA, the “Ratio IC50” value turned out to be 12.35.

For `C=C1C[C@@H]2CC[C@@]34C[C@H]5O[C@H]6[C@@H](O3)[C@H]3O[C@H](CC[C@@H]3O[C@H]6[C@H]5O4)CC(=O)C[C@@H]3[C@@H](OC)[C@@H](C[C@H](O)CN4CCOCC4)O[C@H]3C[C@H]3O[C@@H](CC[C@@H]1O2)C[C@@H](C)C3=C`, the negative logarithm of the IC50 (pIC50) in experiment [1] was 8.14; in experiment [2], 9.82; with DLD-1, 9.51; in the experiment on HCT-15 it was 9.44. For the same compound, the “Ratio IC50” value in the experiment with MES-SA turned out to be 49.82.

Values taken from ChEMBL document CHEMBL1681747, “Novel second generation analogs of eribulin. Part II: Orally available and active against resistant tumors in vivo” (Bioorg Med Chem Lett, 2011).
